In paper PMC10303271, “Synthesis and Receptor Binding Studies of α5 GABAAR Selective Novel Imidazodiazepines Targeted for Psychiatric and Cognitive Disorders” (Molecules, 2023):

Legend:
[1] = target: T1, V1B (Homo sapiens, UniProt P47901); assay: PDSP primary binding V1B; conditions: primary binding, 10,000 nM; last figure of the line = mean of the 4 before it; read-out: V1B, PDSP raw data, mean
T1 construct: purchased NIMH Psychoactive Drug Screening Program (PDSP)
T1 sequence (P47901 1-424): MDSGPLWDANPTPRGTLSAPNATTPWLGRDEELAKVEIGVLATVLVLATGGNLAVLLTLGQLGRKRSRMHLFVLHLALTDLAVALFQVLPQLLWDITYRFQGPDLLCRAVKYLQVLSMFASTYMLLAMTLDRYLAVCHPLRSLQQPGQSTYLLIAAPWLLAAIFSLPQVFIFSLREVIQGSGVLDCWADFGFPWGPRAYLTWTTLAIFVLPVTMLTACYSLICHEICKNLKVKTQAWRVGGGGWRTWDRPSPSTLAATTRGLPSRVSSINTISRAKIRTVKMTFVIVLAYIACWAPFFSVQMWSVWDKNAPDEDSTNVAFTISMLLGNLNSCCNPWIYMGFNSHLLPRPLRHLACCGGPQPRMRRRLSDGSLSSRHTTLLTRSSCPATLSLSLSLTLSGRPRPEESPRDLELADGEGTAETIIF
Method: (§1) To determine if any off-target receptor-binding effects are present, all the novel ligands were sent to the National Institute of Mental Health (NIMH), Psychoactive Drug Screening Program (PDSP). The ligands were screened over a panel of 47 receptors, ion channels, and transporters to determine any other possible interactions with […]. The hERG-binding was also determined. […] No binding of the test compounds to calcium channels was observed. […] It is necessary to screen the compounds for hERG-binding during the early process of drug discovery. The unintentional binding of many drugs to hERG can cause blockade of hERG K+ channels in the heart, which can cause many side effects including cardiac arrhythmias and sudden death. […] All of the α5 imidazodiazepines were tested for hERG-binding.
(§2) The NIMH PDSP assay protocol book [https://kidbdev.med.unc.edu/databases/PDSP%20Protocols%20II%202013-03-28.pdf accessed on 23 April 2023]. describes the protocols for primary and secondary radio-ligand binding assays. These assays were carried out in a final volume of 125 µL per well in the appropriate binding buffer.
(§3) The binding of a ligand to a receptor, ion channel, or transporter was determined in the […] of 10 µM of the appropriate reference compound. […] Plates were incubated in the dark for 90 min at rt, and the reactions were stopped by vacuum filtration onto 0.3% polyethyleneimine (PEI) soaked 96-well filter mats using a 96-well Filtermateharvester. This was followed by three washes with cold PBS buffer. Radioactivity was then counted on a Microbeta counter. Nonlinear regression was used to analyze the data with N = 6 replicates.

[2] = target: T2, SERT (Homo sapiens, UniProt P31645); assay: PDSP primary binding SERT; conditions: primary binding, 10,000 nM; last figure of the line = mean of the 4 before it; some tables list SERT twice; read-out: SERT, PDSP raw data, mean
T2 construct: purchased NIMH Psychoactive Drug Screening Program (PDSP)
Method: as §1, §2, §3

[3] = target: T3, hERG K+ channel (Homo sapiens, UniProt Q12809); assay: PDSP radioligand binding at hERG; conditions: human; at 10,000 nM; N = 5; read-out: Binding Affinity at hERG % Inhibition (Primary Binding)
T3 construct: purchased NIMH Psychoactive Drug Screening Program (PDSP)
Method: as §1, §2, §3

[4] = system: GABAA; assay: PDSP primary binding GABAA; conditions: primary binding, 10,000 nM; last figure of the line = mean of the 4 before it; some tables list it twice
Method: as §1, §2, §3

[5] = target: T4, DAT (Homo sapiens, UniProt Q01959); assay: PDSP primary binding DAT; conditions: 1.5 h, primary binding, 10,000 nM; last figure of the line = mean of the 4 before it; some tables list DAT twice; read-out: DAT, PDSP raw data, mean
T4 construct: purchased NIMH Psychoactive Drug Screening Program (PDSP)
Method: as §1, §2, §3

[6] = target: T5, NOP (Homo sapiens, UniProt P41146); assay: PDSP primary binding NOP; conditions: primary binding, 10,000 nM; last figure of the line = mean of the 4 before it
T5 construct: purchased NIMH Psychoactive Drug Screening Program (PDSP)
Method: as §1, §2, §3

[7] = target: T6, OT (Homo sapiens, UniProt P30559); assay: PDSP primary binding OT (Oxytocin); conditions: primary binding, 10,000 nM; last figure of the line = mean of the 4 before it; some tables list it twice; read-out: OT (also Oxytocin), PDSP raw data, mean
T6 construct: purchased NIMH Psychoactive Drug Screening Program (PDSP)
T6 sequence (P30559 1-389): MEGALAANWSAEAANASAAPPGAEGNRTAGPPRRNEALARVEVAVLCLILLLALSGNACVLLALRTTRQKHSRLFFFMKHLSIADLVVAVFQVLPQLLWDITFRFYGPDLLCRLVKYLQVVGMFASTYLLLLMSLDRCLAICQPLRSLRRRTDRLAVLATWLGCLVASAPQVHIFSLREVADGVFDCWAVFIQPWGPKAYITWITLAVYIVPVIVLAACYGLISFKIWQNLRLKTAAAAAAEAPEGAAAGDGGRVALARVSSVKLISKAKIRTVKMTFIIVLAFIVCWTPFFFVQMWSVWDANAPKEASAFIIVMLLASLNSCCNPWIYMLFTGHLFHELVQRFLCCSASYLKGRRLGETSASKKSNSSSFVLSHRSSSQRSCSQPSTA
Method: as §1, §2, §3

[8] = target: T7, AT2 (Homo sapiens, UniProt P50052); assay: PDSP primary binding AT2; conditions: primary binding, 10,000 nM; last figure of the line = mean of the 4 before it
T7 construct: purchased NIMH Psychoactive Drug Screening Program (PDSP)
Method: as §1
The NIMH PDSP assay protocol book [https://kidbdev.med.unc.edu/databases/PDSP%20Protocols%20II%202013-03-28.pdf accessed on 23 April 2023]. describes the protocols for primary and secondary radio-ligand binding assays. […]
The binding of a ligand to a receptor, ion channel, or transporter was determined in the […] of 10 µM of the appropriate reference compound. Nonspecific binding was also determined in the absence and presence of 10 µM of the appropriate reference compound. […] Radioactivity was then counted on a Microbeta counter. […]

T3 sequence (Q12809 whole entry): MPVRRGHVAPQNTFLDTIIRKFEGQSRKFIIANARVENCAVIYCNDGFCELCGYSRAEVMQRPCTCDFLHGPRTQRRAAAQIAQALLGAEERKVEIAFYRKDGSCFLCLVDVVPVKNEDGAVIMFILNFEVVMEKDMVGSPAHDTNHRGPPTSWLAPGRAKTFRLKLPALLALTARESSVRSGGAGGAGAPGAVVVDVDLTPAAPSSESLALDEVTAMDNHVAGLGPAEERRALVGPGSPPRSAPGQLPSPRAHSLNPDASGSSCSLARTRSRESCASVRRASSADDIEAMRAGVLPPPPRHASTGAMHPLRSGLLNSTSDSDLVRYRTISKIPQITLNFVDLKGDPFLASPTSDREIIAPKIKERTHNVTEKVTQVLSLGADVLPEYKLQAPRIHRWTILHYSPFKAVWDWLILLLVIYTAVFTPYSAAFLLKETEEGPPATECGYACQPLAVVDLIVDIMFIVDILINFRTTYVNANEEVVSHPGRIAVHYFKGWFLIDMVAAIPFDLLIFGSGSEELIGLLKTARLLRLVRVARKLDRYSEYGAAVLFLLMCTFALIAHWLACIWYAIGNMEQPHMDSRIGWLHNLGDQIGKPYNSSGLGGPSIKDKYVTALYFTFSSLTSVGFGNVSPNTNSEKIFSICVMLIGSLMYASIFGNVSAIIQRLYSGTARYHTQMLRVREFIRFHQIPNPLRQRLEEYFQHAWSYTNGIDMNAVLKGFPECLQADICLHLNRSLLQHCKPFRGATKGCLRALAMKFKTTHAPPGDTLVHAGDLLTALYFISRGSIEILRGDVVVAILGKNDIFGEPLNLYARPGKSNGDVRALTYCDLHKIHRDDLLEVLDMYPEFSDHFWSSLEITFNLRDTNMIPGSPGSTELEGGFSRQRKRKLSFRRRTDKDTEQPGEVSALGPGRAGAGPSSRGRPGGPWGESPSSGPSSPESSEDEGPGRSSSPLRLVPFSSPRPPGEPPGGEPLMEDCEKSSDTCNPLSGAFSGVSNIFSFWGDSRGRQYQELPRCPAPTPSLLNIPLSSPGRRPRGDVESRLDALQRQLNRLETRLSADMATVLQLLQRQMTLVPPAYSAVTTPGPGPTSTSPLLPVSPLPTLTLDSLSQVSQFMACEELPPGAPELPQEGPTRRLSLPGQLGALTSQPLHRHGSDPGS
T2 sequence (P31645 whole entry): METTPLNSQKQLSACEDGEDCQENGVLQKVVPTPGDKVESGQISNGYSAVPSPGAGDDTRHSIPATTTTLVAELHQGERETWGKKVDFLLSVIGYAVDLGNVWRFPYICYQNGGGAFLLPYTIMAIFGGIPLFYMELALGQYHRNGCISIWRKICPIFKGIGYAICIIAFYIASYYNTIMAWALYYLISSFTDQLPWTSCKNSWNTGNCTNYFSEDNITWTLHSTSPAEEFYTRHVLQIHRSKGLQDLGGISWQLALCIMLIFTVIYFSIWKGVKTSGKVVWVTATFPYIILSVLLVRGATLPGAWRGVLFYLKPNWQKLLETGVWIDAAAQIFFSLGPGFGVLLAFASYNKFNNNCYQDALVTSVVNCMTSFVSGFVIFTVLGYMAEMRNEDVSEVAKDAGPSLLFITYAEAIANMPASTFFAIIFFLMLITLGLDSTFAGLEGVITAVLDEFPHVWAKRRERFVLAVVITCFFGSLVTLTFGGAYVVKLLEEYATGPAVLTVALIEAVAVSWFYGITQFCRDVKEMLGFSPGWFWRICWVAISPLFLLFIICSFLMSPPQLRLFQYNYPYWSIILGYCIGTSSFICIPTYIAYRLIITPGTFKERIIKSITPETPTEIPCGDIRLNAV
T4 sequence (Q01959 whole entry): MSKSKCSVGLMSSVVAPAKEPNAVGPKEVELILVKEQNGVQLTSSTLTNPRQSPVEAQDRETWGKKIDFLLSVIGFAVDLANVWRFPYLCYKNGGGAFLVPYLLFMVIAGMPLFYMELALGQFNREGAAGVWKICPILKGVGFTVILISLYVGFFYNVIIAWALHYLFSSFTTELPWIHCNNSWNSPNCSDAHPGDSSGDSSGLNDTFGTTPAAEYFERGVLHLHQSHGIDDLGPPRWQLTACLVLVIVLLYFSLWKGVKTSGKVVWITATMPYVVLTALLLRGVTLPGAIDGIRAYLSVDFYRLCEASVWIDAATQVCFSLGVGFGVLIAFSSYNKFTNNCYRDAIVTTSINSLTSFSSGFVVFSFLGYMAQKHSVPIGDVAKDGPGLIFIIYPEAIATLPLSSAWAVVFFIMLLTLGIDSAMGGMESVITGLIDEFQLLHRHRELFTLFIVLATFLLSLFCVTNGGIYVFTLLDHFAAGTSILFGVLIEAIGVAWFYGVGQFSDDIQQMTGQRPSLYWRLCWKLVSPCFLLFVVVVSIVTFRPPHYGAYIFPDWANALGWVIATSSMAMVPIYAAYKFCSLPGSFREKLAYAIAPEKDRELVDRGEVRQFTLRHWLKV
T5 sequence (P41146 whole entry): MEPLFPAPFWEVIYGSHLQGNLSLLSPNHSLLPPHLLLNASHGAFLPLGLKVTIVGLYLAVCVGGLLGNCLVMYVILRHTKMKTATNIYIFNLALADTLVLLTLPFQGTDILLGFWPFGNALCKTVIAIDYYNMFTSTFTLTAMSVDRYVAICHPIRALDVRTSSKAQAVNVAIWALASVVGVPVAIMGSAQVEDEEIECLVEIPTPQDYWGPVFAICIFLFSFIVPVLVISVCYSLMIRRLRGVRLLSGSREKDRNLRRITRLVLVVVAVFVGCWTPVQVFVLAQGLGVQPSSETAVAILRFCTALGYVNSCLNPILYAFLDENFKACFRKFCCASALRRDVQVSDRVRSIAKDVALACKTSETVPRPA
T7 sequence (P50052 whole entry): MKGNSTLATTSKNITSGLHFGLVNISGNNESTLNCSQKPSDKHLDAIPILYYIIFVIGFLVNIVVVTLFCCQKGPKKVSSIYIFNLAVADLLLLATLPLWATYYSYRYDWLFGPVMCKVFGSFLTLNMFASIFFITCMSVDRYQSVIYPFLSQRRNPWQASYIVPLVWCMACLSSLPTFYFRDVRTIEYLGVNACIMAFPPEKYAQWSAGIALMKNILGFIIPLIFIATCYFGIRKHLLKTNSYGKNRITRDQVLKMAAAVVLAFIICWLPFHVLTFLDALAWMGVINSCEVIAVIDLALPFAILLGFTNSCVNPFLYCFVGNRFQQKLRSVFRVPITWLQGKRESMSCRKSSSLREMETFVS

SMILES | inhibition at 10 µM [1] [%] | inhibition at 10 µM [2] [%] | inhibition at 90 min, 10000 nM [3] [%] | GABAA, PDSP raw data, mean [4] [%] | inhibition at 10 µM [5] [%] | NOP, PDSP raw data, mean [6] [%] | inhibition at 10 µM [7] [%] | AT2, PDSP raw data, mean [8] [%]
C[C@H]1N=C(c2ccccc2F)c2cc(-c3ccccc3)ccc2-n2cnc(C(=O)N(C)C)c21 [Compound 5, (R)-6-(2′-Fluorophenyl)-N,N,4-trimethyl-8-phenyl-4H-benzo[f]imidazo[1,5-a][1,4]diazepine-3-carboxamide] | 1.4 | -9.27 | -0.48 ± 4.52 | -4.01 | 29.7 |  |  | 
C#Cc1ccc2c(c1)C(c1ccccc1Cl)=N[C@H](C)c1c(C(=O)NC)ncn1-2 [Compound 21, (R)-6-(2′-Chlorophenyl)-8-ethynyl-N,4-dimethyl-4H-benzo[f]imidazo[1,5-a][1,4]diazepine-3-carboxamide] | 45.8 | 9.24 | -5.73 ± 11.1 | 12.76 |  | -0.1 | -0.63 | 
C#Cc1ccc2c(c1)C(c1ccccn1)=N[C@@H](C)c1c(C(=O)NC)ncn1-2 [Compound 23, (S)-8-Ethynyl-N,4-dimethyl-6-(pyridin-2′-yl)-4H-benzo[f]imidazo[1,5-a][1,4]diazepine-3-carboxamide] | -4.18 | -7.1 | -4.24 ± 3.47 | 23.24 |  |  | 47.4 | 
C#Cc1ccc2c(c1)C(c1ccccc1Cl)=N[C@H](C)c1c(C(=O)N(C)CC)ncn1-2 [Compound 29] | 11 | 6.07 | -1.55 ± 10.1 | 25.77 |  |  | 41.8 | 
C#Cc1ccc2c(c1)C(c1ccccn1)=N[C@@H](C)c1c(C(=O)N(C)C)ncn1-2 [Compound 31, (S)-8-Ethynyl-N,N,4-trimethyl-6-(pyridin-2′-yl)-4H-benzo[f]imidazo[1,5-a][1,4]diazepine-3-carboxamide] | 24.3 | 4.04 | 0.95 ± 2.21 | 9.39 | 15.5 | -14.49 | 23.7 | 
C#Cc1ccc2c(c1)C(c1ccccc1F)=N[C@H](C)c1c(C(=S)N(C)C)ncn1-2 [Compound 33, (R)-8-Ethynyl-6-(2′-fluorophenyl)-N,N,4-trimethyl-4H-benzo[f]imidazo[1,5-a][1,4]diazepine-3-carbothioamide] | 1.4 | -9.27 | -4.4 ± 4.52 | -4.01 | 29.7 |  |  | 
CCc1noc(-c2ncn3c2[C@@H](C)N=C(c2ccccc2F)c2cc(-c4ccccc4)ccc2-3)n1 [Compound 35, (R)-3-Ethyl-5-(6-(2′-fluorophenyl)-4-methyl-8-phenyl-4H-benzo[f]imidazo[1,5-a][1,4]diazepin-3-yl)-1,2,4-oxadiazole] | 21 | 17.2 | 37.3 ± 5.97 | 16.02 | 49.4 |  | 6.27 | 
CCc1noc(-c2ncn3c2[C@@H](C)N=C(c2ccccc2F)c2cc(Cl)ccc2-3)n1 [Compound 36, (R)-5-(8-Chloro-6-(2′-fluorophenyl)-4-methyl-4H-benzo[f]imidazo[1,5-a][1,4]diazepin-3-yl)-3-ethyl-1,2,4-oxadiazole] | 22.9 | 3.09 |  | 13.12 | 11 |  | 14.7 | 
CC(C)c1noc(-c2ncn3c2[C@@H](C)N=C(c2ccccc2F)c2cc(Cl)ccc2-3)n1 [Compound 37, (R)-5-(8-Chloro-6-(2′-fluorophenyl)-4-methyl-4H-benzo[f]imidazo[1,5-a][1,4]diazepin-3-yl)-3-isopropyl-1,2,4-oxadiazole] | -15.4 |  | 4.21 ± 10.8 |  | 37.5 | -10.12 | 10.5 | 12.03
C[C@H]1N=C(c2ccccc2F)c2cc(Cl)ccc2-n2cnc(-c3nc(C4CC4)no3)c21 [Compound 38, (R)-5-(8-Chloro-6-(2′-fluorophenyl)-4-methyl-4H-benzo[f]imidazo[1,5-a][1,4]diazepin-3-yl)-3-cyclopropyl-1,2,4-oxadiazole] | -7.2 | 13.1 | 1.86 ± 25.6 |  | 40 | -17 |  | 24.14
CCc1noc(-c2ncn3c2CN=C(c2ccccc2F)c2cc(C4CC4)ccc2-3)n1 [Compound 44, 5-(8-Cyclopropyl-6-(2′-fluorophenyl)-4H-benzo[f]imidazo[1,5-a][1,4]diazepin-3-yl)-3-ethyl-1,2,4-oxadiazole] | 35.7 | 7.2 | 33.2 ± 12.6 | 11.92 | 37.4 |  | 15.4 | 
CCc1noc(-c2ncn3c2[C@@H](C)N=C(c2ccccc2F)c2cc(C4CC4)ccc2-3)n1 [Compound 46, (R)-5-(8-Cyclopropyl-6-(2′-fluorophenyl)-4-methyl-4H-benzo[f]imidazo[1,5-a][1,4]diazepin-3-yl)-3-ethyl-1,2,4-oxadiazole] | 2.67 | -3.28 | 4.34 ± 3.92 | 19.52 | 22 | 7.5 | 11.4 | 
